This note sets out measurements from patent US20110124588A1, “SYNERGISTIC ACTIVE INGREDIENT COMBINATIONS” (Bayer Cropscience AG, priority 2008, published 2011).

For one assay, the system named is Phaedon cochleariae. Description: Phaedon cochleariae larvae test (sprayed cabbage leaves). The format is in vivo, mustard beetle (Phaedon cochleariae) larvae. The following applies: single active compound; for pest or weed control at 0.16 g/ha / pest or weed control at 0.8 g/ha / pest or weed control at 4 g/ha / pest or weed control at 20 g/ha / pest or weed control at 100 g/ha: Phaedon cochleariae. The method, then:
(§1) If the actual kill rate exceeds the calculated value, the kill of the combination is superadditive, i.e. a synergistic effect is present. In this case, the actually observed kill rate must exceed the value calculated using the above formula for the expected kill rate (E).
Solvents: 78 parts by weight of acetone • • 1.5 parts by weight of dimethylformamide Emulsifier: 0.5 part by weight of alkylaryl polyglycol ether
After the desired period of time, the kill in % is determined 100% means that all beetle larvae have been killed; 0% means that none of the beetle larvae have been killed. The kill rates determined are entered into Colby's formula.

Another assay relates to Spodoptera frugiperda. Description: Spodoptera frugiperda larvae test (sprayed cabbage leaves). The format is in vivo, army worm (Spodoptera frugiperda) larvae.
Source text: (§2) The expected activity of a given combination of two active compounds can be calculated as follows, according to S. R. Colby, Weeds 15 (1967), 20-22:
(§3) X is the kill rate, expressed as a percentage of the untreated control, when employing active compound A at an application rate of m g/ha or in a concentration of m ppm, Y is the kill rate, expressed as a percentage of the untreated control, when employing active compound B at an application rate of n g/ha or in a concentration of n ppm and E is the kill rate, expressed as a percentage of the untreated control, when employing active compounds A and B at application rates of m and n g/ha or in a concentration of m and n ppm, then
as §1
(§4) solvents: 78 parts by weight of acetone • • 1.5 parts by weight of dimethylformamide emulsifier: 0.5 part by weight of alkylaryl polyglycol ether
(§5) To produce a suitable preparation of active compound, 1 part by weight of active compound is mixed with the stated amounts of solvents and emulsifier, and the concentrate is diluted with emulsifier-containing water to the desired concentration.
Cabbage leaves (Brassica oleracea) are treated by spraying with the active compound preparation of the desired concentration and are populated with larvae of the army worm (Spodoptera frugiperda) while the leaves are still moist.
After the desired period of time, the kill in % is determined 100% means that all caterpillars have been killed; 0% means that none of the caterpillars have been killed. The kill rates determined are entered into Colby's formula.

For the next assay, the system named is Tetranychus urticae. Briefly: Tetranychus urticae test (OP-resistant/spray treatment). The format is in vivo, greenhouse red spider mite (Tetranychus urticae).
Source text: as §2, §3, §1, §4, §5
Discs of bean leaves (Phaseolus vulgaris) which are infested by all stages of the greenhouse red spider mite (Tetranychus urticae) are sprayed with an active compound preparation of the desired concentration.
After the desired period of time, the activity in % is determined 100% means that all spider mites have been killed; 0% means that none of the spider mites have been killed.

Another assay has as its system Myzus persicae. Briefly: Myzus persicae test (spray treatment of infested cabbage leaves). The format is in vivo, green peach aphid (Myzus persicae). The method, then:
as §1, §4
After the desired period of time, the kill in % is determined 100% means that all aphids have been killed; 0% means that none of the aphids have been killed. The kill rates determined are entered into Colby's formula.

[1] abbreviates: 48 h, 2 d, read-out: Kill in % after 2 d.
Where [2] appears, read: 48 h, 0.8 g/ha, 2 d, read-out: Kill in % after 2 d.
[3] abbreviates: 144 h, 6 d, read-out: Kill in % after 6 d.
Setting [4] is: Spodoptera frugiperda, 48 h, read-out: Kill in % after 2 d.
Where [5] appears, read: Spodoptera frugiperda, 144 h, read-out: Kill in % after 6 d.
[6] abbreviates: Tetranychus urticae, 48 h, read-out: Kill in % after 2 d.
The mark [7] stands for this setting: Tetranychus urticae, 144 h, read-out: Kill in % after 6 d.
The mark [8] stands for this setting: Myzus persicae, 24 h, read-out: Kill in % after 1 d.
[9] abbreviates: Myzus persicae, 144 h, read-out: Kill in % after 6 d.

Where two headings read alike, the source gives them in different places.

Consider `CC(c1ccc(C(F)(F)F)nc1)S(C)(=O)=NC#N` (stereo not drawn) [compound (I-8)], for which the pest or weed control at 0.16 g/ha in the assay with Phaedon cochleariae (setting [1]), in the assay with Phaedon cochleariae (setting [3]), in the assay on Spodoptera frugiperda (setting [4]), with Spodoptera frugiperda (setting [5]), in the assay on Tetranychus urticae (setting [7]) and with Myzus persicae (setting [8]) was 0% each time. Also, in the assay with Myzus persicae (setting [9]), the pest or weed control at 0.16 g/ha was 60%. Besides, the pest or weed control at 0.8 g/ha in the assay on Phaedon cochleariae (setting [2]) stood at 0%; in the assay on Phaedon cochleariae (144 h, 0.8 g/ha, 6 d, read-out: Kill in % after 6 d) it was 0%; in the assay on Spodoptera frugiperda (setting [4]), 0%; in the assay on Spodoptera frugiperda (setting [5]), 0%; in the assay on Tetranychus urticae (setting [6]), 0%; with Tetranychus urticae (setting [7]) it was 0%. Besides, the pest or weed control at 4 g/ha in the assay on Phaedon cochleariae (setting [1]), in the assay on Phaedon cochleariae (setting [3]), with Spodoptera frugiperda (setting [5]), with Tetranychus urticae (setting [6]) and with Tetranychus urticae (setting [7]) was 0% throughout. The pest or weed control at 20 g/ha in the assay with Phaedon cochleariae (setting [1]) came to 0%; in the assay with Phaedon cochleariae (setting [3]), 17%; in the assay with Spodoptera frugiperda (setting [4]), 0%; in the assay on Spodoptera frugiperda (setting [5]) it was 0%; in the assay on Tetranychus urticae (setting [7]), 0%. The values for the pest or weed control at 100 g/ha with Phaedon cochleariae (setting [1]), in the assay on Phaedon cochleariae (setting [3]) and with Tetranychus urticae (setting [7]) were 67%, 67% and 0%, respectively.

In the case of `CC1(C)[C@H](C(=O)O[C@H](C#N)c2cccc(Oc3ccccc3)c2)[C@@H]1C=C(Br)Br` [deltamethrin], in the assay with Phaedon cochleariae (setting [2]), the pest or weed control at 0.8 g/ha is 67%. Further, the pest or weed control at 0.16 g/ha with Phaedon cochleariae (setting [3]) was found to be 50%; with Spodoptera frugiperda (setting [5]), 17%. Further, in the assay on Tetranychus urticae (setting [7]), the pest or weed control at 4 g/ha stood at 0%. Also, the pest or weed control at 0.032 g/ha with Myzus persicae (setting [8]) was 0%.

As for `Cc1nn(C)c(Oc2ccccc2)c1C=NOCc1ccc(C(=O)OC(C)(C)C)cc1` [fenpyroximate], the pest or weed control at 20 g/ha with Phaedon cochleariae (setting [1]) came to 0%. For the same molecule, the pest or weed control at 100 g/ha in the assay on Spodoptera frugiperda (setting [5]) is 50%. In the assay with Tetranychus urticae (setting [7]), the pest or weed control at 4 g/ha worked out at 60%. Besides, the pest or weed control at 0.8 g/ha in the assay with Myzus persicae (setting [9]) is 0%.

Regarding spinetoram, the “Kill in % after 6 d” value in the assay with Phaedon cochleariae (0.8 g/ha, 6 d) came to 50%; in the assay with Myzus persicae (single active compound, 0.8 g/ha, 6 d), 0%. Further, the “Kill in % after 2 d” value with Spodoptera frugiperda (single active compound, 0.16 g/ha, 2 d) is 50%; in the assay on Tetranychus urticae (single active compound, 4 g/ha, after 2 d), 20%.
